According to publication PMC8592419 (PLoS ONE, 2021):
Values after ≈ are worked out from the molar mass of the structure shown. Where a SMILES comes first, the peptide text is derived from it.

Experiments:
Mab ATCC19977 strain = type: cell-based, Mycobacterium abscessus
Experimental: Briefly, serial dilutions of the AMPs were prepared with potassium phosphate buffer (PPB) from the concentration range of 3.125 to 400 μg/ml and then 50 μl of each dilution were added to each 96-well plate. Colonies of the isolate were suspended and then further diluted in Mueller-Hinton broth to obtain a final concentration of 1×10^3 CFU/ml (optimized according to the available AMP stock concentration). Fifty microliters of this inoculum were added to each well of the plates. The plates were incubated for 3 days at 37°C. Plain media and bacterial suspensions without AMPs were used as negative and positive controls. The MIC values were read and recorded. All assays were performed in duplicate and two independent experiments.

[1] = tested on: M. abscessus clinical isolate MAB01; experiment: In vitro susceptibility testing (DST), CLSI broth microdilution; type: cell-based, M. abscessus subsp. abscessus; set-up: key to DST profile, interpretation, Day 3 / DST profile, interpretation, Day 5 / DST profile, interpretation, Day 14: S, susceptible; I, intermediate; R, resistant
Experimental: (§1) Drug susceptibility testing (DST) was performed according to the Clinical and Laboratory Standards Institute (CLSI) guidelines M24-A2 [42] using the broth microdilution method to determine the minimum inhibitory concentration (MIC). […] Colonies were grown at an adjusted cell density to a 0.5 McFarland standard and further diluted to 5×10^5 CFU/ml. […] These were then incubated at 37°C for 3, 5 and 14 days. The MIC was defined as the concentration in which no visible growth was observed. The results were interpreted according to the guidelines of CLSI. Inducible resistance was inferred by changes in MIC values from being susceptible at day 3 to resistant at day 14.

[2] = tested on: M. abscessus clinical isolate MAB02; experiment: as above; type: cell-based, M. abscessus subsp. abscessus; set-up: key to DST profile, interpretation, Day 3 / DST profile, interpretation, Day 5 / DST profile, interpretation, Day 14: S, susceptible; I, intermediate; R, resistant
Experimental: as §1

[3] = tested on: M. abscessus clinical isolate MAB03; experiment: as above; type: cell-based, M. abscessus subsp. abscessus; set-up: key to DST profile, interpretation, Day 3 / DST profile, interpretation, Day 5 / DST profile, interpretation, Day 14: S, susceptible; I, intermediate; R, resistant
Experimental: as §1

[4] = tested on: M. abscessus clinical isolate MAB04; experiment: as above; type: cell-based, M. abscessus subsp. abscessus; set-up: key to DST profile, interpretation, Day 3 / DST profile, interpretation, Day 5 / DST profile, interpretation, Day 14: S, susceptible; I, intermediate; R, resistant
Experimental: as §1

[5] = tested on: M. abscessus clinical isolate MAB05; experiment: as above; type: cell-based, M. abscessus subsp. abscessus; set-up: key to DST profile, interpretation, Day 3 / DST profile, interpretation, Day 5 / DST profile, interpretation, Day 14: S, susceptible; I, intermediate; R, resistant
Experimental: as §1

[6] = tested on: M. abscessus clinical isolate MAB06; experiment: as above; type: cell-based, M. abscessus subsp. abscessus; set-up: key to DST profile, interpretation, Day 3 / DST profile, interpretation, Day 5 / DST profile, interpretation, Day 14: S, susceptible; I, intermediate; R, resistant
Experimental: as §1

[7] = tested on: M. abscessus clinical isolate MAB07; experiment: as above; type: cell-based, M. abscessus subsp. abscessus; set-up: key to DST profile, interpretation, Day 3 / DST profile, interpretation, Day 5 / DST profile, interpretation, Day 14: S, susceptible; I, intermediate; R, resistant
Experimental: as §1

[8] = tested on: M. abscessus clinical isolate MAB08; experiment: as above; type: cell-based, M. abscessus subsp. abscessus; set-up: key to DST profile, interpretation, Day 3 / DST profile, interpretation, Day 5 / DST profile, interpretation, Day 14: S, susceptible; I, intermediate; R, resistant
Experimental: as §1

[9] = tested on: M. abscessus clinical isolate MAB09; experiment: as above; type: cell-based, M. abscessus subsp. abscessus; set-up: key to DST profile, interpretation, Day 3 / DST profile, interpretation, Day 5 / DST profile, interpretation, Day 14: S, susceptible; I, intermediate; R, resistant
Experimental: as §1

[10] = tested on: M. abscessus clinical isolate MAB10; experiment: as above; type: cell-based, M. abscessus subsp. abscessus; set-up: key to DST profile, interpretation, Day 3 / DST profile, interpretation, Day 5 / DST profile, interpretation, Day 14: S, susceptible; I, intermediate; R, resistant
Experimental: as §1

[11] = tested on: M. abscessus clinical isolate MAB11; experiment: as above; type: cell-based, M. abscessus subsp. abscessus; set-up: key to DST profile, interpretation, Day 3 / DST profile, interpretation, Day 5 / DST profile, interpretation, Day 14: S, susceptible; I, intermediate; R, resistant
Experimental: as §1

[12] = tested on: M. abscessus clinical isolate MAB12; experiment: as above; type: cell-based, M. abscessus subsp. massiliense; set-up: key to DST profile, interpretation, Day 3 / DST profile, interpretation, Day 5 / DST profile, interpretation, Day 14: S, susceptible; I, intermediate; R, resistant
Experimental: as §1

[13] = tested on: M. abscessus clinical isolate MAB13; experiment: as above; type: cell-based, M. abscessus subsp. massiliense; set-up: key to DST profile, interpretation, Day 3 / DST profile, interpretation, Day 5 / DST profile, interpretation, Day 14: S, susceptible; I, intermediate; R, resistant
Experimental: as §1

[14] = tested on: M. abscessus clinical isolate MAB14; experiment: as above; type: cell-based, M. abscessus subsp. massiliense; set-up: key to DST profile, interpretation, Day 3 / DST profile, interpretation, Day 5 / DST profile, interpretation, Day 14: S, susceptible; I, intermediate; R, resistant
Experimental: as §1

[15] = tested on: M. abscessus clinical isolate MAB15; experiment: as above; type: cell-based, M. abscessus subsp. massiliense; set-up: key to DST profile, interpretation, Day 3 / DST profile, interpretation, Day 5 / DST profile, interpretation, Day 14: S, susceptible; I, intermediate; R, resistant
Experimental: as §1

[16] = tested on: M. abscessus clinical isolate MAB16; experiment: as above; type: cell-based, M. abscessus subsp. massiliense; set-up: key to DST profile, interpretation, Day 3 / DST profile, interpretation, Day 5 / DST profile, interpretation, Day 14: S, susceptible; I, intermediate; R, resistant
Experimental: as §1

[17] = not given; remark: listed apart in the source
[18] = Mycobacteroides abscessus, 120 h, day 5, read-out: DST profile, MIC value, Day 5

SMILES: CC(C)[C@H](NC(=O)[C@@H](NC(=O)[C@H](CO)NC(=O)CNC(=O)[C@@H](NC(=O)[C@H](C)NC(=O)CN)C(C)C)C(C)C)C(=O)O [Pug-2] (H-GAVGSVV-OH)
- MIC values (Mab ATCC19977 strain): >400 µg/mL

SMILES: CC(C)C[C@H](NC(=O)[C@H](Cc1ccccc1)NC(=O)[C@H](CO)NC(=O)[C@@H]1CCCN1C(=O)[C@@H](N)Cc1ccccc1)C(=O)N[C@H](C(=O)NCC(=O)N[C@@H](CCCNC(=N)N)C(=O)O)C(C)C [Pug-4] (H-FPSFLVGR-OH)
- MIC values (Mab ATCC19977 strain): >400 µg/mL

SMILES: CC(C)C[C@H](N)C(=O)NCC(=O)N[C@H](C(=O)N[C@@H](Cc1ccc(O)cc1)C(=O)O)[C@@H](C)O [Pug-3] (H-LGTY-OH)
- MIC values (Mab ATCC19977 strain): >400 µg/mL

SMILES: NCC[C@H](O)C(=O)N[C@@H]1C[C@H](N)[C@@H](O[C@H]2O[C@H](CN)[C@@H](O)[C@H](O)[C@H]2O)[C@H](O)[C@H]1O[C@H]1O[C@H](CO)[C@@H](O)[C@H](N)[C@H]1O [AMK, Amikacin]
- MIC [1, 18]: 64 µg/mL (≈ 109 µM)
- DST profile, interpretation, Day 5 ([1]; day 5, CLSI interpretation): R
- MIC [2, 18]: 8 µg/mL (≈ 13.7 µM)
- DST profile, interpretation, Day 5 ([2]; day 5, CLSI interpretation): S
- MIC [3, 18]: 4 µg/mL (≈ 6.83 µM)
- DST profile, interpretation, Day 5 ([3]; day 5, CLSI interpretation): S
- MIC [4, 18]: 8 µg/mL (≈ 13.7 µM)
- DST profile, interpretation, Day 5 ([4]; day 5, CLSI interpretation): S
- MIC [5, 18]: 32 µg/mL (≈ 54.6 µM)
- DST profile, interpretation, Day 5 ([5]; day 5, CLSI interpretation): I
- MIC [6, 18]: 8 µg/mL (≈ 13.7 µM)
- DST profile, interpretation, Day 5 ([6]; day 5, CLSI interpretation): S
- MIC [7, 18]: 8 µg/mL (≈ 13.7 µM)
- DST profile, interpretation, Day 5 ([7]; day 5, CLSI interpretation): S
- MIC [8, 18]: 8 µg/mL (≈ 13.7 µM)
- DST profile, interpretation, Day 5 ([8]; day 5, CLSI interpretation): S
- MIC [9, 18]: 8 µg/mL (≈ 13.7 µM)
- DST profile, interpretation, Day 5 ([9]; day 5, CLSI interpretation): S
- MIC [10, 18]: 64 µg/mL (≈ 109 µM)
- DST profile, interpretation, Day 5 ([10]; day 5, CLSI interpretation): R
- MIC [11, 18]: 16 µg/mL (≈ 27.3 µM)
- DST profile, interpretation, Day 5 ([11]; day 5, CLSI interpretation): S
- MIC [12, 18]: 8 µg/mL (≈ 13.7 µM)
- DST profile, interpretation, Day 5 ([12]; day 5, CLSI interpretation): S
- MIC [13, 18]: 8 µg/mL (≈ 13.7 µM)
- DST profile, interpretation, Day 5 ([13]; day 5, CLSI interpretation): S
- MIC [14, 18]: 64 µg/mL (≈ 109 µM)
- DST profile, interpretation, Day 5 ([14]; day 5, CLSI interpretation): R
- MIC [15, 18]: 8 µg/mL (≈ 13.7 µM)
- DST profile, interpretation, Day 5 ([15]; day 5, CLSI interpretation): S
- MIC [16, 18]: 32 µg/mL (≈ 54.6 µM)
- DST profile, interpretation, Day 5 ([16]; day 5, CLSI interpretation): I

SMILES: CC[C@H](C)[C@H](NC(=O)[C@H](CCCCN)NC(=O)[C@H](CCCNC(=N)N)NC(=O)CNC(=O)[C@H](CC(C)C)NC(=O)[C@H](CO)NC(=O)[C@H](CCCNC(=N)N)NC(=O)[C@H](CC(C)C)NC(=O)CNC(=O)CN)C(=O)N[C@@H](CC(C)C)C(=O)N[C@@H](CCCNC(=N)N)C(=O)N[C@@H](C)C(=O)N[C@@H](Cc1c[nH]c2ccccc12)C(=O)N[C@@H](CCCCN)C(=O)N[C@@H](CCCCN)C(=O)O [S62] (H-GGLRSLGRKILRAWKK-OH)
- MIC values (Mab ATCC19977 strain): 200 µg/mL (≈ 109 µM)
- MIC after 3 days, MAB01 and MAB03: < 50 µg/mL
- MIC within 24 h, majority of isolates (10/16) [17]: < 50 µg/mL

SMILES: CC(C)C[C@H](NC(=O)[C@H](CCCCN)NC(=O)[C@H](CC(C)C)NC(=O)[C@@H](N)CC(C)C)C(=O)N[C@@H](Cc1ccccc1)C(=O)N[C@@H](Cc1ccccc1)C(=O)N1CCC[C@H]1C(=O)N[C@@H](Cc1ccccc1)C(=O)N[C@@H](CC(C)C)C(=O)N[C@@H](CCC(=O)O)C(=O)N[C@H](C(=O)NCC(=O)N[C@@H](CCC(=O)O)C(=O)O)[C@@H](C)O [Pug-1] (H-LLKLFFPFLETGE-OH)
- MIC values (Mab ATCC19977 strain): >400 µg/mL
